Experimental data taken from paper PMC9791652 (Journal of Medicinal Chemistry, 2022).
Values after ≈ are worked out from the molar mass of the structure shown. Like-named read-outs stand apart in the source and are kept apart here.

Experiments:
[1] = system: noninfected zebrafish larvae; conditions: data not shown
[2] = system: M. marinum (expressing Wasabi) infected zebrafish larvae; assay type: in vivo; conditions: for lowest dose significantly prolonging survival of infected zebrafish: 4-day exposure in water, refreshed daily, 1 to 5 dpi
[3] = system: Escherichia coliΔtolC (BW25113 ΔtolC); experiment: organism not typed; assay type: cell-based
[4] = mouse liver microsomes
[5] = system: streptomycin starved 18b nonreplicating Mtb (ss18b-lux); assay type: cell-based, Mycobacterium tuberculosis; conditions: for drop in bacterial counts (cfu) of ss18b-lux: 7 days of exposure; for bactericidal activity against nonreplicating ss18b-lux by cfu counting: 7 days of antibiotic exposure
[6] = system: Mtb H37Rv ATP levels; experiment: Impact of TriSLa exposure on Mtb ATP levels; assay type: cell-based, Mycobacterium tuberculosis; conditions: 24 h exposure
[7] = system: H37Rv; assay type: cell-based, Mycobacterium tuberculosis
[8] = physchem; conditions: pH 7.4
[9] = system: Mtb H37Rv NADH/NAD+ ratio; experiment: Impact of TriSLa exposure on Mtb NADH and NAD+ levels; assay type: cell-based, Mycobacterium tuberculosis

| Compound | toxicity in noninfected zebrafish larvae [1] | lowest dose significantly prolonging survival of infected zebrafish [2] | MIC [3] | ss18b-lux luminescence signal [5] | bactericidal activity against nonreplicating ss18b-lux by cfu counting [5] | bacterial ATP concentrations [6] | further results |
| --- | --- | --- | --- | --- | --- | --- | --- |
| CC(C)[C@H]1CO[C@]23CCN(Cc4ccc(C(F)(F)F)nc4)C[C@H]2CCC(=O)N13 [Compound 13, (3S,7aR,11aR)-3-Isopropyl-9-[[6-(trifluoromethyl)-3-pyridyl]methyl]-2,3,6,7,7a,8,10,11-octahydrooxazolo[2,3-j][1,6]naphthyridin-5-one] | did not interfere with larval development or show any toxicity | 1.2 µM | – | – | – | – | – |
| CC(C)[C@H]1CO[C@]23CCN(Cc4ccccc4)C[C@H]2CCC(=O)N13 [Compound 1, (3S,7aR,11aR)-9-Benzyl-3-isopropyl-2,3,6,7,7a,8,10,11-octahydrooxazolo[2,3-j][1,6]naphthyridin-5-one] | – | – | > 100 µM | – | – | – | metabolic stability (in words) [4]: high clearance |
| CC(C)[C@H]1CO[C@]23CCN(Cc4ccc(C(F)(F)F)cc4)C[C@H]2CCC(=O)N13 [Compound 11, (3S,7aR,11aR)-3-Isopropyl-9-[[4-(trifluoromethyl)phenyl]methyl]-2,3,6,7,7a,8,10,11-octahydrooxazolo[2,3-j][1,6]naphthyridin-5-one] | did not interfere with larval development or show any toxicity | 0.3 µM | 100 µM (≈ 39.6 µg/mL) | time-dependent decrease in luminescence | concentration-dependent killing | concentration-dependent shutdown in bacterial ATP concentrations | drop in bacterial counts (cfu) of ss18b-lux ([5]; 4.8 μM): 1–2 log; bactericidal activity by cfu at 1× MIC [7]: bacteriostatic; drop in cfu after 1 week [7]: ~0.8 log; drop in cfu after 2 weeks [7]: ~2.0 log; logD [8]: 3.9 |
| CO[C@H]1/C=C/O[C@@]2(C)Oc3c(C)c(O)c4c(O)c(c(/C=N/N5CCN(C)CC5)c(O)c4c3C2=O)NC(=O)/C(C)=C\C=C\[C@H](C)[C@H](O)[C@@H](C)[C@@H](O)[C@@H](C)[C@H](OC(C)=O)[C@@H]1C [rifampicin] | – | – | – | time-dependent decrease in luminescence | bactericidal | – | drop in bacterial counts (cfu) of ss18b-lux ([5]; 0.6 μM, stated as similar to 11 and 12 at 4.8 μM): 1–2 log; Mtb NADH/NAD+ ratio relative to untreated bacteria [9]: decrease in NADH/NAD^+ |
| COc1nc2ccc(Br)cc2cc1[C@@H](c1ccccc1)[C@@](O)(CCN(C)C)c1cccc2ccccc12 [bedaquiline] | – | – | – | time-dependent decrease in luminescence | bactericidal | concentration-dependent shutdown in bacterial ATP concentrations | drop in bacterial counts (cfu) of ss18b-lux ([5]; 1 μM, stated as similar to 11 and 12 at 4.8 μM): 1–2 log; Mtb NADH/NAD+ ratio relative to untreated bacteria [9]: increase in the NADH/NAD^+ ratio; bactericidal activity by cfu at 1× and 2× MIC ([7]; H37Rv, 1× and 2× MIC (250 and 500 nM), 2 week exposure period): largely bacteriostatic |
| CC(C)[C@H]1CO[C@]23CCN(Cc4ccc(OC(F)(F)F)cc4)C[C@H]2CCC(=O)N13 [Compound 12, (3S,7aR,11aR)-3-Isopropyl-9-[[4-(trifluoromethoxy)phenyl]methyl]-2,3,6,7,7a,8,10,11-octahydrooxazolo[2,3-j][1,6]naphthyridin-5-one] | did not interfere with larval development or show any toxicity | 0.3 µM | 100 µM (≈ 41.2 µg/mL) | time-dependent decrease in luminescence | concentration-dependent killing | concentration-dependent shutdown in bacterial ATP concentrations | drop in bacterial counts (cfu) of ss18b-lux ([5]; 4.8 μM): 1–2 log; bacterial load (fluorescence pixel count) in infected zebrafish ([2]; 0.5 μg/mL ([…]), 2–4 days of exposure): bacteriostatic; bacterial load (fluorescence pixel count) in infected zebrafish ([2]; 2 μg/mL (4.8 μM), between 2 and 4 days of exposure): significant decrease in the bacterial burden; infection foci in fluorescence images ([2]; 0.25 to 2 μg/mL (0.6–4.8 μM), 2 or 4-day treatment): fewer and less intense infection foci; bactericidal activity by cfu at 1× MIC [7]: bacteriostatic; drop in cfu after 1 week [7]: ~0.8 log; drop in cfu after 2 weeks [7]: ~2.0 log; logD [8]: 3.4 |
| NNC(=O)c1ccncc1 [isoniazid] | – | – | – | increase in luminescence | no significant bactericidal activity | – | – |
